Holding throughout (assay): growth of human tumour cells (NCI), 48 h
The test system of assay [1] is HCC-2998 colon.
Assay [2] has as its system OVCAR-5 ovarian.
Assay [3] deals with ACHN renal.
The test system of assay [4] is OVCAR-8 ovarian.
Assay [5] relates to UACC-257 melanoma.
The subject of assay [6] is SK-MEL-2 melanoma.
For assay [7], the system named is NCI-H460 lung.
Assay [8] concerns HL-60(TB) leukemia.
The test system of assay [9] is KM12 colon.
Assay [10] concerns HCT-15 colon.

Eight compounds from PubChem BioAssay (NCI) can be followed below.

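Where inhibition never reached the appropriate level, the endpoint shown equals the highest concentration tested. Otherwise, values were interpolated linearly from a five-concentration, 48-hour dose response in 96-well plates. GI50 = concentration required for 50% inhibition of growth. TGI: total growth inhibition.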

With `COc1ccc(C[n+]2c3ccccc3n3c4ccc(N)cc4ccc32)c(OC)c1OC`, the GI50 in assay [1] is 4 µM; in [2], 12.1 µM; in assay [3], 36.2 µM; in assay [4], 6.48 µM; in assay [5], 2.56 µM; in assay [6] it was 3.78 µM. Further, the GI50 in assay [7] was 3.54 µM; in assay [8], 3.09 µM; in assay [9] it was 2.41 µM; in [10], 82.1 µM. The TGI in assay [1] is 24.7 µM; in assay [2] it was 78.5 µM; in assay [3], greater than 100 µM; in assay [4] it was 32.5 µM; in [5], 8.02 µM; in assay [6] it was 14.8 µM. Also, the TGI was 18.2 µM in assay [7], 11.7 µM in assay [8], 13.7 µM in [9] and greater than 100 µM in [10].

In the case of `NC(=O)c1cc(-c2ccncc2)cc(-c2ccccc2)c1N`, the GI50 in assay [1] was greater than 25 µM; in assay [2] it was greater than 25 µM; in assay [3], 7.4 µM; in [4], 15.1 µM; in assay [5] it was greater than 25 µM; in assay [6], greater than 5.2 µM. In addition, the GI50 was 22.6 µM in assay [7], greater than 25 µM in [8], greater than 25 µM in assay [9] and 19 µM in [10]. The TGI in assay [1] is greater than 25 µM; in [2] it was greater than 25 µM; in [3], greater than 25 µM; in [4], greater than 25 µM; in assay [5], greater than 25 µM; in [6], greater than 17 µM. Moreover, the TGI in assay [7], in assay [8], in assay [9] and in [10] was greater than 25 µM in each case.

For the compound `Oc1c(C(Nc2cccc3ccccc23)c2ccccc2)ccc2cccnc12` (centres undefined), the GI50 in assay [1] is 4.56 µM; in assay [2] it was 7.32 µM; in assay [3], 3.55 µM; in assay [4] it was 3.22 µM; in [5] it was 2.88 µM; in assay [6], 6.58 µM. Further, the GI50 in [7] is 2.07 µM; in assay [8] it was 1.93 µM; in [9], 5.03 µM; in assay [10], 3.78 µM. In addition, the TGI in assay [1] was greater than 100 µM; in assay [2] it was greater than 100 µM; in assay [3], 28.6 µM; in [4], 39.3 µM; in assay [5] it was 9.28 µM; in assay [6] it was greater than 100 µM. The TGI in assay [7] is 18.5 µM; in [8], 8.4 µM; in assay [9] it was greater than 100 µM; in assay [10], 62.1 µM.

With `CN(Cc1cnc(N)nc1N)c1ccc(C(=O)O)cc1`, the GI50 in assay [1], in assay [2], in assay [3], in [4], in [5] and in [6] was greater than 100 µM in each case. For the same compound, the GI50 in [7], in assay [8], in assay [9] and in assay [10] was greater than 100 µM throughout. In addition, the TGI in assay [1], in assay [2], in assay [3], in [4], in assay [5] and in assay [6] was greater than 100 µM each time. Besides, the TGI in [7], in assay [8], in [9] and in assay [10] was greater than 100 µM each time.

Regarding `N=CCCN(CCC=N)c1ccc(/C=C2\CN(NC(=O)c3ccc(Cl)cc3)C(c3ccccc3)=N2)cc1`, the TGI in assay [1], in assay [2], in assay [3], in assay [4], in assay [5] and in assay [6] was greater than 100 µM in each case. Also, the TGI in [7], in assay [8], in assay [9] and in assay [10] was greater than 100 µM throughout.

As to `N#CC(C#N)=Cc1c(-c2ccccc2)[nH]c2ccccc12`, the GI50 is 10.4 µM in [1]; 19.6 µM in [2]; 7.07 µM in assay [3]; 5.75 µM in [4]; 23.9 µM in [5]; 19.1 µM in [6]. Further, the GI50 is 2.02 µM in assay [7], 1.62 µM in assay [8], 0.66 µM in [9] and 0.906 µM in assay [10]. The TGI in [1] was 35.9 µM; in assay [2], greater than 100 µM; in [3] it was greater than 55.9 µM; in [4] it was greater than 90.2 µM; in [5], greater than 64.7 µM; in assay [6], greater than 70.6 µM. Further, the TGI was greater than 39.8 µM in assay [7], greater than 20.2 µM in [8], 27.5 µM in assay [9] and greater than 47.3 µM in assay [10].

Regarding `CC[C@@]1(OC(=O)CN)C(=O)OCc2c1cc1n(c2=O)Cc2cc3cc4c(cc3nc2-1)OCO4`, the GI50 in assay [1] is 0.0171 µM; in [2], less than 0.0169 µM; in assay [3], less than 0.01 µM; in [4], less than 0.01 µM; in assay [5], less than 0.0234 µM; in assay [6] it was 0.105 µM. Further, the GI50 in [7] was less than 0.01 µM; in assay [8], less than 0.01 µM; in [9], 0.0346 µM; in assay [10], 0.0291 µM. Besides, the TGI in [1] is 1.38 µM; in [2] it was 0.232 µM; in assay [3], less than 0.01 µM; in [4], 0.13 µM; in [5], 0.417 µM; in assay [6] it was 0.438 µM. Moreover, the values for the TGI in assay [7], in assay [9] and in assay [10] were 0.0238 µM, 0.296 µM and greater than 100 µM, respectively.

In the case of `O=C1c2cccc3cc([N+](=O)[O-])cc(c23)C(=O)N1NC1=NCCN1`, the TGI in [1], in assay [2], in assay [3], in [4], in assay [5] and in [6] was greater than 100 µM in each case. Further, the TGI in [7], in assay [8], in assay [9] and in assay [10] was greater than 100 µM throughout.
